Measured values: patent US20200216416A1, “QUINOLINE COMPOUNDS AS INHIBITORS OF TAM AND MET KINASES” (Array BioPharma Inc., priority 2019, published 2020)
Read-outs that look alike come from different tables or passages of the source.

What was measured:
human MET kinase Y1230H = molecular target: T1, human MET kinase Y1230H (Homo sapiens, UniProt P08581, Y1230H); assay: c-Met Enzyme Assay, Y1230H mutant; type: binding; details: averaged IC50; Y1230H 5 nM; 60-minute incubation at 22° C.; read-out: Y1230 H IC50
T1 construct: GST-tagged recombinant human MET kinase domain; purchased Signal Chem
T1 sequence (P08581 1078-1345 Y1230H): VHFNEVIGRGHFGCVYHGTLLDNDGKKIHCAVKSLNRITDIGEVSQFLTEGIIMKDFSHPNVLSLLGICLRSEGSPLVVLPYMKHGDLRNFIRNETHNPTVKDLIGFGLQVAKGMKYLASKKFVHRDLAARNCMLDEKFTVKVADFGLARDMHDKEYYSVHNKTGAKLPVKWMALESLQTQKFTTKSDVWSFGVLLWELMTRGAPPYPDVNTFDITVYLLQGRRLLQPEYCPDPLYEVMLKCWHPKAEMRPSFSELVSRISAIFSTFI
Description: The affinity of compound binding to wild type and mutant human MET kinases was measured using Invitrogen's LanthaScreen™ Eu Kinase Binding technology. Briefly, GST-tagged recombinant human MET kinase domain from Signal Chem (see Table 8 below for concentration in assay) was incubated with 50 nM Alexa-Fluor® Tracer 236 (Invitrogen Cat No. PR9078A) and 2 nM Europium-anti-GST (Invitrogen Cat. No. A15116) along with test compound in a buffer consisting of 25 mM HEPES, pH 7.4, 10 mM MgCl2, 0.01% Triton X-100, 1mM DTT, and 2% DMSO. Compounds were typically prepared in a three-fold serial dilution in DMSO and added to the assay to give the appropriate final concentration. After a 60-minute incubation at 22° C., the reaction was measured using a PerkinElmer EnVision multimode plate reader via TR-FRET dual wavelength detection, and the percent of control (POC) calculated using a ratiometric emission factor. […] The POC values were fit to a 4 parameter logistic curve and the IC50 value is point where the curve crosses 50 POC.

MDR1 (P-gp) = molecular target: T2, MDR1 (P-gp) (Homo sapiens, UniProt P08183); assay: MDR1 LLC-PK1 permeability assay; type: in vitro ADME; details: pig, MDR1 transfected LLC-PK1 cells; for Papp at 2 h, 1 μM: permeability coefficient (Papp)
T2 construct: expressed in transfected cells; host or cells: LLC-PK1
T2 sequence (P08183 whole entry): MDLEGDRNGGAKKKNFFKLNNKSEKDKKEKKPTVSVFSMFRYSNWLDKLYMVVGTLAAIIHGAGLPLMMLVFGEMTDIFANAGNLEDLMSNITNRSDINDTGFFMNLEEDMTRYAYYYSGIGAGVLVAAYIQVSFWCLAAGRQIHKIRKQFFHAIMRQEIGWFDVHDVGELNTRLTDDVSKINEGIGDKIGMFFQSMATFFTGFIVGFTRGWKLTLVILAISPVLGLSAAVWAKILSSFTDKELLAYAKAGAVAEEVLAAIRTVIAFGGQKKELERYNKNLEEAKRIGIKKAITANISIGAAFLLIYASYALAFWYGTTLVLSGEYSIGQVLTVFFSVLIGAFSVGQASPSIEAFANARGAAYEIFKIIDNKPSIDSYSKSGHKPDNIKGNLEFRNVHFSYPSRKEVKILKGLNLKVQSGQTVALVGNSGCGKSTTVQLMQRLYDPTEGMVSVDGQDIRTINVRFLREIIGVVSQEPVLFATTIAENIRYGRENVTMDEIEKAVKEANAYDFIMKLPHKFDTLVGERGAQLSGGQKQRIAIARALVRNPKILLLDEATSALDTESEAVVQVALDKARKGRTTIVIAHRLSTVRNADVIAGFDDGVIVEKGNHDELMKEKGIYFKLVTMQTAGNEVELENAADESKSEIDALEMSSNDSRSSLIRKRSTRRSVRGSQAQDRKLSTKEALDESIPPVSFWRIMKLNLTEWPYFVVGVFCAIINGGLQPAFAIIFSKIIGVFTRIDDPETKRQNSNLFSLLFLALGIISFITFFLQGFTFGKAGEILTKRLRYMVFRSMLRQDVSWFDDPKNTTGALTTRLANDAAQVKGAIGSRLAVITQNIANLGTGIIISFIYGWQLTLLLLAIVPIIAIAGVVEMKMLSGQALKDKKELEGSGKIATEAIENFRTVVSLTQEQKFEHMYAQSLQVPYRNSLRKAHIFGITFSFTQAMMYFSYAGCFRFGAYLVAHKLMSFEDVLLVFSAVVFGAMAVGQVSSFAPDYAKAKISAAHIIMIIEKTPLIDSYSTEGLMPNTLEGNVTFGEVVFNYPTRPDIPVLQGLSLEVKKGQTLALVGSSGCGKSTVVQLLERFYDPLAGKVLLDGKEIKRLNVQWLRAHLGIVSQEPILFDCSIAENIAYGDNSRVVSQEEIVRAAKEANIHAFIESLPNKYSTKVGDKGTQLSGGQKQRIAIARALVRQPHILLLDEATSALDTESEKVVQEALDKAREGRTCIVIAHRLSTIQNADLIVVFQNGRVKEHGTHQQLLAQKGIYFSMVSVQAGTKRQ
Description: MDR1 transfected LLC-PK1 cells were cultured and plated according to manufacturer's recommendations with the exception that the passage media contained only 2% fetal bovine serum to extend passage time out to seven days.
Both positive and negative controls were used to assess functionality of P-gp efflux in the assay. Stock solutions for assay controls and the test article were prepared in DMSO for final test concentrations of 10 and 1 μM, respectively. Final organic concentration in the assay was 1%. All dosing solutions contained 10 μM lucifer yellow to monitor LLC-PK1 cell monolayer integrity.
For the apical to basolateral determination (A to B), 75 μL of the test article in transport buffer were added to the apical side of the individual transwells and 250 μL of basolateral media, without compound or lucifer yellow, were added to each well. For the basolateral to apical determination (B to A), 250 μL of test article in transport buffer were added to each well and 75 μL transport buffer, without compound or lucifer yellow, were added to each transwell. All tests were performed in triplicate, and each compound was tested for both apical to basolateral and basolateral to apical transport. The plates were incubated for 2 hours on a Lab-Line Instruments Titer Orbital Shaker (VWR, West Chester, Pa.) at 50 rpm and 37° C. with 5% CO2. All culture plates were removed from the incubator and 50 μL of media were removed from the apical and basolateral portion of each well and added to 150 μL of 1 μM labetalol in 2:1 acetonitrile (acetonitrile): H2O, v/v.
The plates were read using a Molecular Devices (Sunnyvale, Calif.) Gemini Fluorometer to evaluate the lucifer yellow concentrations at excitation/emission wavelengths of 425/535 nm. These values were accepted when found to be below 2% for apical to basolateral and 5% basolateral to apical flux across the MDR1-transfected LLC-PK1-transfected cell monolayers. The plates were sealed and the contents of each well analyzed by LC-MS/MS. The compound concentrations were determined from the ratio of the peak areas of the compound to the internal standard (labetalol) in comparison to the dosing solution.
The LC-MS/MS system was comprised of an HTS-PAL autosampler (Leap Technologies, Carrboro, N.C.), an HP1200 HPLC (Agilent, Palo Alto, Calif.), and a MDS Sciex 4000 Q Trap system (Applied Biosystems, Foster City, Calif.). […] The total run time, including re-equilibration, for a single injection was 1.2 minutes. Mass spectrometric detection of the analytes was accomplished using the ion spray positive mode. Analyte responses were measured by multiple reaction monitoring (MRM) of transitions unique to each compound (the protonated precursor ion and selected product ions for each test article and m/z 329 to m/z 162 for labetalol, the internal standard).
The permeability coefficient (Papp) is calculated from the following equation: […]
where Cd, V, t and C0 are the detected concentration (μM), the volume on the dosing side (mL), the incubation time (s) and the initial dosing concentration (μM), respectively. The calculations for Papp were made for each replicate and then averaged. In this assay, a compound is defined has having high permeability if the permeability is greater than 8×10^−6 cm/sec, a compound is defined has having medium permeability if the permeability is from 2×10^−6 cm/sec to 8×10^−6 cm/sec, and a compound is defined has having low permeability if the permeability is less than 2×10^−6 cm/sec.
An efflux ratio was calculated from the mean apical to basolateral (A-B) Papp data and basolateral to apical (B-A) Papp data:
Efflux ratio=Papp(B−A)/Papp(A−B)

[1] = LLC-PK1, Papp(B−A)/Papp(A−B), test article 1 μM, 2 hours, 37° C., read-out: Efflux ratio
[2] = LLC-PK1, efflux ratio = Papp(B-A)/Papp(A-B), read-out: MDR1 Pe Ratio

| Compound | IC50 (human MET kinase Y1230H) [µM] | efflux ratio at 2 h, 1 μM (MDR1 (P-gp); [1]) | efflux ratio at 2 h, 1 μM (MDR1 (P-gp); [2]) | Papp at 2 h, 1 μM (MDR1 (P-gp)) [nm/s] |
| --- | --- | --- | --- | --- |
| COc1cc2nccc(Oc3ccc(NC(=O)c4cn(C(C)C)cc(-c5ccc(F)cc5C)c4=O)nc3)c2cc1OC [Example 19, N-(5-((6,7-dimethoxyquinolin-4yl)oxy)pyridin-2-yl)-5-(4-fluoro-2-methylphenyl)-1-isopropyl-4-oxo-1,4-dihydropyridine-3-carboxamide] | 0.0027 | 3.5 | 2.8 | 110 |
| COc1cc2nccc(Oc3ccc(NC(=O)c4c[nH]cc(-c5ccc(F)cc5)c4=O)nc3)c2cc1OC [Example 26, N-(5-((6,7-dimethoxyquinolin-4yl)oxy)pyridin-2-yl)-5-(4-fluorophenyl)-4-oxo-1,4-dihydropyridine-3-carboxamide] | 0.017 |  | 44 | 30 |
| COc1ccc(-c2cn(C(C)C)cc(C(=O)Nc3ccc(Oc4ccnc5cc(OC)c(OC)cc45)cn3)c2=O)c(F)c1 [Example 31, N-(5-((6,7-dimethoxyquinolin-4yl)oxy)pyridin-2-yl)-5-(2-fluoro-4-methoxyphenyl)-1-isopropyl-4-oxo-1,4-dihydropyridine-3-carboxamide] | 0.0982 | 3.5 | 2 | 110 |
| COc1cc2nccc(Oc3ccc(NC(=O)c4cn(C(C)C)cc(-c5ccc(F)cc5Cl)c4=O)nc3)c2cc1OC [Example 18, 5-(2-chloro-4-fluorophenyl)-N-(5-((6,7-dimethoxyquinolin-4-yl)oxy)pyridin-2-yl)-1-isopropyl-4-oxo-1,4-dihydropyridine-3-carboxamide] | 0.0046 | 3.5 | 2.1 | 110 |
| COc1cc2c(Oc3ccc(NC(=O)c4cn(C(C)C)c(C)c(-c5ccc(F)cc5)c4=O)nc3)ccnc2cc1F [Example 48, N-(5-((7-fluoro-6-methoxyquinolin-4yl)oxy)pyridin-2-yl)-5-(4-fluorophenyl)-1-isopropyl-6-methyl-4-oxo-1,4-dihydropyridine-3-carboxamide] | 0.0158 | 3.5 | 1.6 | 150 |
| COc1cc(-c2cn(C(C)C)cc(C(=O)Nc3ccc(Oc4ccnc5cc(OC)c(OC)cc45)cn3)c2=O)ccc1F [Example 20, N-(5-((6,7-dimethoxyquinolin-4yl)oxy)pyridin-2-yl)-5-(4-fluoro-3-methoxyphenyl)-1-isopropyl-4-oxo-1,4-dihydropyridine-3-carboxamide] | 0.0099 |  | 3.6 | 90 |
| COc1cc2nccc(Oc3ccc(NC(=O)c4cn(CCC(C)C)cc(-c5ccc(Cl)cc5)c4=O)nc3)c2cc1OC [Example 37] | 0.0168 |  | 13 | < 10 |
| COc1ccc(-c2cn(C(C)C)cc(C(=O)Nc3ccc(Oc4ccnc5cc(OC)c(OC)cc45)cn3)c2=O)cc1 [Example 30, N-(5-((6,7-dimethoxyquinolin-4yl)oxy)pyridin-2-yl)-1-isopropyl-5-(4-methoxyphenyl)-4-oxo-1,4-dihydropyridine-3-carboxamide] | 0.103 | 3.5 | 3.1 | 70 |
| COc1ccc2nccc(Oc3ccc(NC(=O)c4cn(CCN(C)C)cc(-c5ccc(F)cc5)c4=O)nc3)c2c1 [Example 47] | 0.0294 |  | 9.3 |  |
| CCCC(CCC)n1cc(C(=O)Nc2ccc(Oc3ccnc4cc(OC)c(OC)cc34)cn2)c(=O)c(-c2ccc(F)cc2F)c1 [Example 17, 5-(2,4-difluorophenyl)-N-(5-((6,7-dimethoxyquinolin-4yl)oxy)pyridin-2-yl)-1-(heptan-4-yl)-4-oxo-1,4-dihydropyridine-3-carboxamide] | 0.0269 |  | 24 | < 10 |
| CCCn1cc(C(=O)Nc2ccc(Oc3ccnc4cc(OC)c(OC)cc34)cn2)c(=O)c(-c2ccc(F)cc2)c1 [Example 10, N-(5((6,7-dimethoxyquinolin-4-yl)oxy)pyridin-2-yl)-5-(4-fluorophenyl)-4-oxo-1-propyl-1,4-dihydropyridine-3-carboxamide] | 0.0061 |  | 2.7 | 70 |
| COc1cc2nccc(Oc3ccc(NC(=O)c4cn(CCC(C)C)cc(-c5ccc(F)cc5F)c4=O)nc3)c2cc1OC [Example 36, 5-(2,4-difluorophenyl)-N-(5-((6,7-dimethoxyquinolin-4yl)oxy)pyridin-2-yl)-1-isopentyl-4-oxo-1,4-dihydropyridine-3-carboxamide] | 0.0044 |  | 4.3 | 10 |
| COc1cc2c(Oc3ccc(NC(=O)c4cn(C(C)C)cc(-c5ccc(F)cc5)c4=O)nc3)ccnc2cc1OCCCN1CCOCC1 [Example 56, 5-(4-fluorophenyl)-1-isopropyl-N-(5-((6-methoxy-7-(3-morpholinopropoxy)quinolin-4-yl)oxy)pyridin-2-yl)-4-oxo-1,4-dihydropyridine-3-carboxamide] | 0.0052 |  | 20 | < 10 |
| COc1cc2nccc(Oc3ccc(NC(=O)c4cn(C(C)C)cc(-c5ccc(F)c(Cl)c5)c4=O)nc3)c2cc1OC [Example 21, 5-(3-chloro-4-fluorophenyl)-N-(5-((6,7-dimethoxyquinolin-4-yl)oxy)pyridin-2-yl)-1-isopropyl-4-oxo-1,4-dihydropyridine-3-carboxamide] | 0.0513 | 3.5 | 1.3 | 12 |
| COc1cc2nccc(Oc3ccc(NC(=O)c4cn(C(C)C)cc(-c5ccc(F)cc5)c4=O)cn3)c2cc1OC [Example 58, N-(6-((6,7-dimethoxyquinolin-4-yl)oxy)pyridin-3-yl)-5-(4-fluorophenyl)-1-isopropyl-4-oxo-1,4-dihydropyridine-3-carboxamide] | 0.0053 | 3.5 | 3 | 100 |
| COc1ccc2nccc(Oc3ccc(NC(=O)c4cn(C(C)C)c(C)c(-c5ccc(F)cc5)c4=O)nc3)c2c1 [Example 33, 5-(4-fluorophenyl)-1-isopropyl-N-(5-((6-methoxyquinolin-4-yl)oxy)pyridin-2-yl)-6-methyl-4-oxo-1,4-dihydropyridine-3-carboxamide] | 0.0112 | 3.5 | 2 | 100 |
